Test results published in patent US10681909B2, “Herbicidal triazoles” (FMC Corporation, priority 2014, dated 2020).

Assays:
[1] = test system: ryegrass, Italian; test: Test C preemergence; type: in vivo, Lolium multiflorum; conditions: for Ryegrass, Italian plant response rating (0 to 100): Preemergence, visual rating after 13 to 15 d; for Plant response rating (scale of 0 to 100 where 0 is no effect and 100 is complete control): Ryegrass, Italian, preemergence
Method in brief: (§1)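 Surfactant-containing, non-phytotoxic solvent formulations of each compound were applied either preemergence to seeds in a loam soil–sand blend or postemergence to plants 2 to 18 cm tall (1- to 4-leaf stage). Postemergence plants were grown in peat moss–vermiculite medium.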

[2] = test system: nutsedge, yellow; test: Test C preemergence; type: in vivo, Cyperus esculentus; conditions: for Plant response rating (scale of 0 to 100 where 0 is no effect and 100 is complete control): Nutsedge, Yellow, preemergence; for Nutsedge, Yellow plant response rating (0 to 100): Preemergence, visual rating after 13 to 15 d
Method in brief: as §1

[3] = test system: blackgrass; test: Test D preemergence; type: in vivo, Alopecurus myosuroides; conditions: for Plant response rating: Blackgrass: scale 0 to 100
Description: (§2) Seeds of plant species selected from bluegrass (annual bluegrass, Poa annua), blackgrass (Alopecurus myosuroides), canarygrass (Phalaris minor), chickweed (common chickweed, Stellaria media), galium (catchweed bedstraw, Galium aparine), bromegrass, down (downy bromegrass, Bromus tectorum), Russian thistle (Salsola kali), field poppy (Papaver rhoeas), field violet (Viola arvensis), foxtail, green (green foxtail, Setaria viridis), deadnettle (henbit deadnettle, Lamium amplexicaule), ryegrass, Ital. (Italian ryegrass, Lolium multiflorum), kochia (Kochia scoparia), lambsquarters (Chenopodium album), oilseed rape (Brassica napus), pigweed (Amaranthus retroflexus), chamomile (scentless chamomile, Matricaria inodora), speedwell (bird's-eye speedwell, Veronica persica), barley, spring (spring barley, Hordeum vulgare), wheat, spring (spring wheat, Triticum aestivum), buckwheat, wild (wild buckwheat, Polygonum convolvulus), wild mustard (Sinapis arvensis), oat, wild (wild oat, Avena fatua), radish, wild (wild radish, Raphanus raphanistrum), […]), barley, winter (winter barley, Hordeum vulgare), and wheat, winter (winter wheat, Triticum aestivum) were planted into a silt loam soil and treated preemergence with test chemicals formulated in a non-phytotoxic solvent mixture which included a surfactant. At the same time, these species were planted in pots containing Sunshine Redi-Earth® planting medium comprising spaghnum peat moss, vermiculite, starter nutrients and dolomitic limestone and treated with postemergence applications of the test chemicals formulated in the same manner. Plants ranged in height from 2 to 18 cm (1- to 4-leaf stage). Treated plants and controls were maintained in a controlled growth environment for 14 to 21 d after which time all species were compared to controls and visually evaluated. […] A dash (-) response means no test result.

[4] = test system: ryegrass, Ital.; test: Test D postemergence; type: in vivo, Lolium multiflorum; conditions: scale 0 to 100
Description: as §2

[5] = test system: wild mustard; test: Test D postemergence; type: in vivo, Sinapis arvensis; conditions: scale 0 to 100
Description: as §2

[6] = test system: morningglory; test: Test C preemergence; type: in vivo, Ipomoea coccinea; conditions: for Plant response rating (scale of 0 to 100 where 0 is no effect and 100 is complete control): Morningglory, preemergence; for Morningglory plant response rating (0 to 100): Preemergence, visual rating after 13 to 15 d
Method in brief: as §1

[7] = test system: ryegrass, Italian; test: Test A preemergence; type: in vivo, Lolium multiflorum; conditions: 0 to 100 scale (0 no effect, 100 complete control)
Method in brief: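 Seeds sown in loam soil–sand blend received a directed preemergence soil spray of test chemical in non-phytotoxic solvent with surfactant; postemergence plants, 2 to 10 cm at one- to two-leaf stage, were sprayed with the same formulation. Injury visually rated versus untreated controls after ~10 d in greenhouse, 0–100 scale.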

[8] = test system: chickweed; test: Test D preemergence; type: in vivo, Stellaria media; conditions: for Plant response rating: Chickweed: scale 0 to 100
Description: as §2

[9] = 16 g ai/ha, 0 is no effect, 100 is complete control

Fc1ccc(-c2nc(OCC(F)(F)F)n(Cc3ccnc(C(F)(F)F)c3)n2)cc1 [Compound 30]
Ryegrass, Italian plant response rating (0 to 100) ([1]; 31 g ai/ha): 5 | Ryegrass, Italian plant response rating (0 to 100) ([1]; 62 g ai/ha): 60 | Plant response rating (scale of 0 to 100 where 0 is no effect and 100 is complete control) ([1]; 125 g ai/ha): 70 | Plant response rating (scale of 0 to 100 where 0 is no effect and 100 is complete control) ([1]; 250 g ai/ha): 70 | Plant response rating (scale of 0 to 100 where 0 is no effect and 100 is complete control) ([2]; 125 g ai/ha): 0 | Plant response rating (scale of 0 to 100 where 0 is no effect and 100 is complete control) ([2]; 250 g ai/ha): 10 | Nutsedge, Yellow plant response rating (0 to 100) ([2]; 31 g ai/ha): 0 | Nutsedge, Yellow plant response rating (0 to 100) ([2]; 62 g ai/ha): 0 | Plant response rating (0 to 100), Blackgrass [3, 9]: 30 | Plant response rating: Blackgrass ([3]; 31 g ai/ha): 45 | Plant response rating: Blackgrass ([3]; 62 g ai/ha): 60 | Plant response rating: Blackgrass ([3]; 125 g ai/ha): 70 | Plant response rating: Ryegrass, Ital. ([4]; 16 g ai/ha): 35 | Plant response rating: Ryegrass, Ital. ([4]; 31 g ai/ha): 60 | Plant response rating: Ryegrass, Ital. ([4]; 62 g ai/ha): 65 | Plant response rating: Ryegrass, Ital. ([4]; 125 g ai/ha): 70 | Plant response rating: Mustard, Wild ([5]; 16 g ai/ha): 90 | Plant response rating: Mustard, Wild ([5]; 31 g ai/ha): 100 | Plant response rating: Mustard, Wild ([5]; 62 g ai/ha): 100 | Plant response rating: Mustard, Wild ([5]; 125 g ai/ha): 100 | Plant response rating (scale of 0 to 100 where 0 is no effect and 100 is complete control) ([6]; 125 g ai/ha): 60 | Plant response rating (scale of 0 to 100 where 0 is no effect and 100 is complete control) ([6]; 250 g ai/ha): 90 | Morningglory plant response rating (0 to 100) ([6]; 31 g ai/ha): 35 | Morningglory plant response rating (0 to 100) ([6]; 62 g ai/ha): 35 | Plant response rating, Ryegrass, Italian ([7]; 125 g ai/ha): 90 | Plant response rating, Ryegrass, Italian ([7]; 500 g ai/ha, approx. 10 d): 100 | Plant response rating (0 to 100), Chickweed [8, 9]: 70 | Plant response rating: Chickweed ([8]; 31 g ai/ha): 80 | Plant response rating: Chickweed ([8]; 62 g ai/ha): 100 | Plant response rating: Chickweed ([8]; 125 g ai/ha): 100
